{"source": "paper PMC9516332", "about": "(Frontiers in Oncology, 2022)", "key": {"[1]": {"test_system": "134 cancer cell lines", "experiment": "Cell viability assay (ATPlite, 72 hours), IC50 on cancer cell line panel"}, "[2]": {"test_system": "AP-1060 (ETV6-NTRK3)", "experiment": "Cell viability assay", "settings": "read-out: IC50 in cell proliferation assay"}}, "note": "Read-outs that look alike come from different tables or passages of the source."}
{"smiles": "CC(C)(C)c1nc(-c2cccc(NS(=O)(=O)c3c(F)cccc3F)c2F)c(-c2ccnc(N)n2)s1", "note": "[dabrafenib]", "values": [{"measurement": "IC50", "setting": "[1]; Homo sapiens, MV4-11, read-out: IC50 in cell proliferation assay, MV4-11 cell line (FLT3 ITD)", "result": 8020, "unit": "nM"}, {"measurement": "IC50", "setting": "[1]; Homo sapiens, MeWo, read-out: IC50 in cell proliferation assay, MeWo cell line", "result": 1020, "unit": "nM"}, {"measurement": "IC50", "setting": "[1]; Homo sapiens, NCCIT, read-out: IC50 in cell proliferation assay, NCC-IT cell line", "result": 1160, "unit": "nM"}, {"measurement": "IC50", "setting": "[1]; Homo sapiens, NCI-H82, read-out: IC50 in cell proliferation assay, cell line NCI-H82", "result": 1120, "unit": "nM"}, {"measurement": "IC50", "setting": "[1]; Homo sapiens, NCI-H460, read-out: IC50 in cell proliferation assay, NCI-H460 cell line", "result": 1150, "unit": "nM"}, {"measurement": "IC50", "setting": "[1]; Homo sapiens, NCI-H661, read-out: IC50 in cell proliferation assay, NCI-H661 cell line", "result": "> 10000", "unit": "nM"}, {"measurement": "IC50", "setting": "[1]; Homo sapiens, NCI-H716, read-out: IC50 in cell proliferation assay, cell line NCI-H716 (FGFR2-COL14A1)", "result": 1170, "unit": "nM"}, {"measurement": "IC50", "setting": "[1]; Homo sapiens, NCI-H1650, read-out: IC50 in cell proliferation assay, NCI-H1650 cell line (EGFR exon19del)", "result": "> 10000", "unit": "nM"}, {"measurement": "IC50", "setting": "[1]; Homo sapiens, NCI-H1975, read-out: IC50 in cell proliferation assay, NCI-H1975 cell line (EGFR p.L858R + p.T790M)", "result": 1420, "unit": "nM"}, {"measurement": "IC50", "setting": "[1]; Homo sapiens, NCI-H2228, read-out: IC50 in cell proliferation assay, NCI-H2228 cell line (EML4-ALK)", "result": 2200, "unit": "nM"}, {"measurement": "IC50", "setting": "[1]; Homo sapiens, OVCAR-3, read-out: IC50 in cell proliferation assay, cell line OVCAR-3", "result": 1040, "unit": "nM"}, {"measurement": "IC50", "setting": "[1]; Homo sapiens, PFSK-1, read-out: IC50 in cell proliferation assay, cell line PFSK-1", "result": "> 10000", "unit": "nM"}, {"measurement": "IC50", "setting": "[1]; Homo sapiens, RL95-2, read-out: IC50 in cell proliferation assay, cell line RL95-2 (EGFR p.A289V)", "result": 2990, "unit": "nM"}, {"measurement": "IC50", "setting": "[1]; Homo sapiens, RPMI-7951, read-out: IC50 in cell proliferation assay, cell line RPMI-7951 (BRAF p.V600E)", "result": 43, "unit": "nM"}, {"measurement": "IC50", "setting": "[1]; Homo sapiens, RS4-11, read-out: IC50 in cell proliferation assay, cell line RS4;11", "result": 1210, "unit": "nM"}, {"measurement": "IC50", "setting": "[1]; Homo sapiens, Rec1, read-out: IC50 in cell proliferation assay, cell line REC-1", "result": 975, "unit": "nM"}, {"measurement": "IC50", "setting": "[1]; Homo sapiens, SHP77, read-out: IC50 in cell proliferation assay, cell line SHP-77", "result": "> 10000", "unit": "nM"}, {"measurement": "IC50", "setting": "[1]; Homo sapiens, SK-BR-3, read-out: IC50 in cell proliferation assay, cell line SK-BR-3 (ERBB2 amplification)", "result": 1570, "unit": "nM"}, {"measurement": "IC50", "setting": "[1]; Homo sapiens, SK-N-AS, read-out: IC50 in cell proliferation assay, cell line SK-N-AS", "result": 3020, "unit": "nM"}, {"measurement": "IC50", "setting": "[1]; Homo sapiens, SK-N-FI, read-out: IC50 in cell proliferation assay, cell line SK-N-FI", "result": "> 10000", "unit": "nM"}, {"measurement": "IC50", "setting": "[1]; Homo sapiens, SK-N-MC, read-out: IC50 in cell proliferation assay, cell line SK-N-MC", "result": 1780, "unit": "nM"}, {"measurement": "IC50", "setting": "[1]; Homo sapiens, SK-N-SH, read-out: IC50 in cell proliferation assay, cell line SK-N-SH (ALK p.F1174L)", "result": 2140, "unit": "nM"}, {"measurement": "IC50", "setting": "[1]; Homo sapiens, SNU-5, read-out: IC50 in cell proliferation assay, cell line SNU-5 (MET amplification)", "result": "> 10000", "unit": "nM"}, {"measurement": "IC50", "setting": "[1]; Homo sapiens, SNU-16, read-out: IC50 in cell proliferation assay, cell line SNU-16 (FGFR2 amplification)", "result": "> 10000", "unit": "nM"}, {"measurement": "IC50", "setting": "[1]; Homo sapiens, SNU-C2B, read-out: IC50 in cell proliferation assay, cell line SNU-C2B (EGFR p.R165Q)", "result": "> 10000", "unit": "nM"}, {"measurement": "IC50", "setting": "[1]; Homo sapiens, SU-DHL-1, read-out: IC50 in cell proliferation assay, cell line SU-DHL-1 (NPM1-ALK)", "result": "> 10000", "unit": "nM"}, {"measurement": "IC50", "setting": "[1]; Homo sapiens, SU-DHL-6, read-out: IC50 in cell proliferation assay, cell line SU-DHL-6", "result": 2610, "unit": "nM"}, {"measurement": "IC50", "setting": "[1]; Homo sapiens, SUP-T1, read-out: IC50 in cell proliferation assay, cell line SUP-T1", "result": "> 10000", "unit": "nM"}, {"measurement": "IC50", "setting": "[1]; Homo sapiens, SW48, read-out: IC50 in cell proliferation assay, cell line SW48 (EGFR p.G719S)", "result": 3010, "unit": "nM"}, {"measurement": "IC50", "setting": "[1]; Homo sapiens, SW480, read-out: IC50 in cell proliferation assay, cell line SW480", "result": 2990, "unit": "nM"}, {"measurement": "IC50", "setting": "[1]; Homo sapiens, SW626, read-out: IC50 in cell proliferation assay, cell line SW626", "result": "> 10000", "unit": "nM"}, {"measurement": "IC50", "setting": "[1]; Homo sapiens, SW780, read-out: IC50 in cell proliferation assay, cell line SW780 (FGFR3-BAIAP2L1)", "result": "> 10000", "unit": "nM"}, {"measurement": "IC50", "setting": "[1]; Homo sapiens, SW837, read-out: IC50 in cell proliferation assay, cell line SW837", "result": "> 10000", "unit": "nM"}, {"measurement": "IC50", "setting": "[1]; Homo sapiens, SW872, read-out: IC50 in cell proliferation assay, cell line SW872 (BRAF p.V600E)", "result": 25, "unit": "nM"}, {"measurement": "IC50", "setting": "[1]; Homo sapiens, SW900, read-out: IC50 in cell proliferation assay, cell line SW900", "result": 1120, "unit": "nM"}, {"measurement": "IC50", "setting": "[1]; Homo sapiens, SW948, read-out: IC50 in cell proliferation assay, cell line SW948", "result": 2720, "unit": "nM"}, {"measurement": "IC50", "setting": "[1]; Homo sapiens, SW982, read-out: IC50 in cell proliferation assay, cell line SW982 (BRAF p.V600E)", "result": 1160, "unit": "nM"}, {"measurement": "IC50", "setting": "[1]; Homo sapiens, SW-620, read-out: IC50 in cell proliferation assay, cell line SW620", "result": "> 10000", "unit": "nM"}, {"measurement": "IC50", "setting": "[1]; Homo sapiens, T98G, read-out: IC50 in cell proliferation assay, cell line T98G", "result": "> 10000", "unit": "nM"}, {"measurement": "IC50", "setting": "[1]; Homo sapiens, TCC-SUP, read-out: IC50 in cell proliferation assay, cell line TCCSUP", "result": 2080, "unit": "nM"}, {"measurement": "IC50", "setting": "[1]; Homo sapiens, THP-1, read-out: IC50 in cell proliferation assay, cell line THP-1", "result": "> 10000", "unit": "nM"}, {"measurement": "IC50", "setting": "[1]; Homo sapiens, U2OS, read-out: IC50 in cell proliferation assay, cell line U2OS", "result": "> 10000", "unit": "nM"}, {"measurement": "IC50", "setting": "[1]; Homo sapiens, U-87 MG, read-out: IC50 in cell proliferation assay, cell line U-87MG ATCC", "result": 3600, "unit": "nM"}, {"measurement": "IC50", "setting": "[1]; Homo sapiens, U-118-MG, read-out: IC50 in cell proliferation assay, cell line U-118MG", "result": 2210, "unit": "nM"}, {"measurement": "IC50", "setting": "[1]; Homo sapiens, UMUC3, read-out: IC50 in cell proliferation assay, cell line UM-UC-3", "result": 1950, "unit": "nM"}, {"measurement": "IC50", "setting": "[1]; Hs766T, read-out: IC50 in cell proliferation assay, Hs 766T cell line", "result": "> 10000", "unit": "nM"}, {"measurement": "IC50", "setting": "[1]; L-82, read-out: IC50 in cell proliferation assay, L-82 cell line (NPM1-ALK)", "result": "> 10000", "unit": "nM"}, {"measurement": "IC50", "setting": "[1]; Rh30, read-out: IC50 in cell proliferation assay, cell line Rh30", "result": "> 10000", "unit": "nM"}, {"measurement": "IC50", "setting": "[1]; read-out: IC50 in cell proliferation assay, 11-18 cell line (EGFR p.L858R)", "result": "> 10000", "unit": "nM"}, {"measurement": "IC50", "setting": "[1]; read-out: IC50 in cell proliferation assay, Hs 852.T cell line", "result": 1420, "unit": "nM"}, {"measurement": "IC50", "setting": "[1]; read-out: IC50 in cell proliferation assay, JAR cell line", "result": 1530, "unit": "nM"}, {"measurement": "IC50", "setting": "[1]; read-out: IC50 in cell proliferation assay, cell line 5637", "result": 562, "unit": "nM"}, {"measurement": "IC50", "setting": "[1]; read-out: IC50 in cell proliferation assay, cell line A-388", "result": "> 10000", "unit": "nM"}, {"measurement": "IC50", "setting": "[1]; read-out: IC50 in cell proliferation assay, cell line DB", "result": 1720, "unit": "nM"}, {"measurement": "IC50", "setting": "[1]; read-out: IC50 in cell proliferation assay, cell line DEL (NPM1-ALK)", "result": "> 10000", "unit": "nM"}, {"measurement": "IC50", "setting": "[1]; read-out: IC50 in cell proliferation assay, cell line ES-2 (BRAF p.V600E)", "result": 130, "unit": "nM"}, {"measurement": "IC50", "setting": "[1]; read-out: IC50 in cell proliferation assay, cell line PA-1", "result": 1710, "unit": "nM"}, {"measurement": "IC50", "setting": "[1]; read-out: IC50 in cell proliferation assay, cell line PC-3", "result": "> 10000", "unit": "nM"}, {"measurement": "IC50", "setting": "[1]; read-out: IC50 in cell proliferation assay, cell line RD", "result": 1790, "unit": "nM"}, {"measurement": "IC50", "setting": "[1]; read-out: IC50 in cell proliferation assay, cell line RKO (BRAF p.V600E)", "result": 11, "unit": "nM"}, {"measurement": "IC50", "setting": "[1]; read-out: IC50 in cell proliferation assay, cell line RL", "result": "> 10000", "unit": "nM"}, {"measurement": "IC50", "setting": "[1]; read-out: IC50 in cell proliferation assay, cell line RT-4 (FGFR3-TACC3)", "result": "> 10000", "unit": "nM"}, {"measurement": "IC50", "setting": "[1]; read-out: IC50 in cell proliferation assay, cell line SR (NPM1-ALK)", "result": 1760, "unit": "nM"}, {"measurement": "IC50", "setting": "[1]; read-out: IC50 in cell proliferation assay, cell line T24", "result": 1170, "unit": "nM"}, {"measurement": "IC50", "setting": "[1]; read-out: IC50 in cell proliferation assay, cell line TT (RET p.C634W)", "result": "> 10000", "unit": "nM"}, {"measurement": "IC50", "setting": "[1]; read-out: IC50 in cell proliferation assay, cell line VA-ES-BJ", "result": 2100, "unit": "nM"}, {"measurement": "IC50", "setting": "[2]", "result": 2520, "unit": "nM"}]}
